# Patent US11352330B2, “Phenoxymethyl derivatives” (Hoffmann-La Roche Inc., priority 2015, dated 2022)
# Target: human ATX (Homo sapiens (Human), UniProt Q13822)
# Assay: Human ATX enzyme inhibition assay (fluorescence quenching, MR121 substrate)
# Format: biochemical
# Conditions: human His-tagged ATX 30 nM, MR121 substrate 1 μM, 30° C.
# How it was run: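 Human His-tagged ATX (30 nM final) preincubated 15 min at 30 °C with serially diluted compounds in Tris buffer pH 8.0 with Ca2+, Mg2+ and 0.01% Triton X-100. MR121/tryptophan-labelled substrate analogue (1 μM final) then added for 15 min at 30 °C; cleavage read by fluorescence dequenching.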
row,SMILES,IC50 [µM]
1,"Cc1cc(OCc2n[nH]c(=O)n2C)c(-c2cc(C(F)(F)F)nn2C)cc1Cl [Example B24, 3-[[4-Chloro-5-methyl-2-[2-methyl-5-(trifluoromethyl)pyrazol-3-yl]phenoxy]methyl]4-methyl-1H-1,2,4-triazol-5-one]",0.126
2,Cc1cc(OCc2n[nH]c(=O)n2C)c(-c2cccc(S(C)(=O)=O)c2)cc1Cl [Example B6],0.008
3,"CCOC(=O)CNC(=O)c1cccc(-c2cc(Cl)c(C)cc2OCc2n[nH]c(=O)n2C)c1 [Example B46, Ethyl 2-[[3-[5-chloro-4-methyl-2-[(4-methyl-5-oxo-1H-1,2,4-triazol-3-yl)methoxy]phenyl]benzoyl]amino]acetate]",0.007
4,Cc1cc(OCc2n[nH]c(=O)n2C)c(-c2cc(CN3CCCC3=O)ccc2F)cc1Cl [Example B81],0.003
5,"Cc1cc(C(C)C)c(OCc2ccc(=O)[nH]n2)cc1Cl [Example C4, 3-[(5-chloro-4-methyl-2-propan-2-ylphenoxy)methyl]-1H-pyridazin-6-one]",0.003
6,Cc1cc(OCc2n[nH]c(=O)n2C)c(-c2cc(C(=O)N(C)Cc3ccccn3)ccc2F)cc1Cl [Example B71],0.009
7,Cc1cc(OCc2n[nH]c(=O)n2C)c(-c2cc(OC(C)C)ccc2F)cc1Cl [Example B57],0.011
8,COCC(=O)N(C)Cc1ccc(F)c(-c2cc(Cl)c(C)cc2OCc2n[nH]c(=O)n2C)c1 [Example B78],0.007
9,"CC(=O)N1CCc2c(COc3cc(C)c(Cl)cc3C(C)(C)C)n[nH]c2C1 [Example E5, 1-(3-((2-tert-Butyl-4-chloro-5-methylphenoxy)methyl)-4,5-dihydro-1H-pyrazolo[3,4-c]pyridin-6(7H)-yl)ethanone]",0.017
10,"Cc1cc(OCc2ccc(=O)[nH]n2)c(C(C)(C)C)cc1Cl [Example C8, 3-[(2-tert-butyl-4-chloro-5-methylphenoxy)methyl]-1H-pyridazin-6-one]",0.005
11,Cc1cc(OCc2n[nH]c(=O)n2C)c(-c2cc(CNC(=O)C3CC3)ccc2F)cc1Cl [Example B79],0.01
12,Cn1c(COc2cc(Cl)c(C#N)cc2-c2cccc(C(=O)N3CCOCC3)c2)n[nH]c1=O [Example B41],0.04
13,N#Cc1cc(-c2cc(OC(F)(F)F)ccc2F)c(OCc2n[nH]c3ccncc23)cc1Cl [Example D54],0.028
14,Cc1cc(OCc2n[nH]c(=O)n2C)c(-c2cncc(C(N)=O)c2)cc1Cl [Example B20],0.913
15,CC(C)c1cc(Cl)ccc1OCc1n[nH]c(=O)n1C [Example A29],0.05
16,COCCN(C)C(=O)c1ccc(F)c(-c2cc(Cl)c(C)cc2OCc2n[nH]c(=O)n2C)c1 [Example B73],0.009
17,CC(C)c1cc(C#N)ccc1OCc1n[nH]c(=O)n1C [Example A11],0.015
18,Cc1nnc(-c2cccc(-c3cc(C#N)c(Cl)cc3OCc3n[nH]c(=O)n3C)c2)o1 [Example B37],0.079
19,"Cn1c(COc2cc(Cl)c(C#N)cc2-c2cc(OC(F)(F)F)ccc2F)n[nH]c1=O [Example B97, 2-chloro-5-[2-fluoro-5-(trifluoromethoxy)phenyl]-4-[(4-methyl-5-oxo-1H-1,2,4-triazol-3-yl)methoxy]benzonitrile]",0.008
20,Cc1cc(C(C)(C)C)c(OCc2n[nH]c3ncccc23)cc1C#N [Example D48],0.032
21,"Cc1cc(OCc2n[nH]c3nc(N4CC(O)C4)ncc23)c(C(C)(C)C)cc1C#N [Example D32, 5-tert-Butyl-4-[[6-(3-hydroxyazetidin-1-yl)-1H-pyrazolo[3,4-d]pyrimidin-3-yl]methoxy]-2-methylbenzonitrile]",0.008
22,"Cc1cc(OCc2ccc(=O)[nH]n2)c(C(C)(C)C#N)cc1Cl [Example C9, 2-[5-chloro-4-methyl-2-[(6-oxo-1H-pyridazin-3-yl)methoxy]phenyl]-2-methylpropanenitrile]",0.046
23,"Cc1cc(OCc2n[nH]c3nc(OCCO)ncc23)c(C(C)(C)C)cc1Cl [Example D31, 2-[[3-[(2-tert-Butyl-4-chloro-&-methylphenoxy)methyl]-1H-pyrazolo[3,4-d]pyrimidin-6-yl]oxy]ethanol]",0.007
24,COCC(=O)NCc1ccc(F)c(-c2cc(Cl)c(C)cc2OCc2n[nH]c(=O)n2C)c1 [Example B83],0.008
25,Cn1c(COc2cc(Cl)c(C#N)cc2-c2cc(Cl)ccc2F)n[nH]c1=O [Example B93],0.005

row,SMILES,IC50 [µM]
1,Cc1noc(-c2ccc(OCc3n[nH]c(=O)n3C)c(C(C)(C)C)c2)n1 [Example A4],0.059
2,Cn1c(COc2cc(Cl)c(C#N)cc2-c2cc(C(=O)N3CCOCC3)ccc2F)n[nH]c1=O [Example B61],0.01
3,"Cc1cc(OCc2n[nH]c3nc(OCC(O)CO)ncc23)c(C(C)(C)C)cc1Cl (centres unmarked) [Example D34, 3-[[3-[(2-tert-Butyl-4-chloro-5-methylphenoxy)methyl]-1H-pyrazolo[3,4-d]pyrimidin-6-yl]oxy]propane-1,2-diol]",0.002
4,Cc1cc(OCc2n[nH]c(=O)n2C)c(-c2ccccc2S(C)(=O)=O)cc1Cl [Example B7],4.2
5,"Cn1c(COc2cc(Cl)c(C#N)cc2-c2cccc(-c3cc[nH]n3)c2)n[nH]c1=O [Example B34, 2-Chloro-4-[(4-methyl-5-oxo-1H-1,2,4-triazol-3-yl)methoxy]-5-[3-(H-pyrazol-3-yl)phenyl]benzonitrile]",0.051
6,"Cc1cc(OCc2cc(C(=O)N(C)C)[nH]n2)c(C(C)(C)C)cc1Cl [Example F5, 3-((2-(tert-Butyl)-4-chloro-5-methylphenoxy)methyl)-N,N-dimethyl-1H-pyrazole-5-carboxamide]",0.015
7,Cc1cc(OCc2n[nH]c(=O)n2C)c(-c2cc(C(=O)N3CCN(C)C(=O)C3)ccc2F)cc1Cl [Example B65],0.013
8,Cn1ccnc1-c1ccc(OCc2n[nH]c(=O)n2C)c(C(C)(C)C)c1 [Example A6],0.523
9,Cc1cc(OCc2n[nH]c3ncccc23)c(-c2cc(C(=O)N(C)C)ccc2F)cc1Cl [Example D21],0.009
10,CN(CCO)c1ccc2c(COc3cc(F)c(Cl)cc3C(C)(C)C)n[nH]c2n1 [Example D14],0.013
11,COc1ncccc1-c1cc(Cl)c(C)cc1OCc1ccc(=O)[nH]n1 [Example C10],0.032
12,Cc1cc(OCc2n[nH]c(=O)n2C)c(-c2cc(OCC(C)C)ccc2F)cc1Cl [Example B58],0.016
13,"Cc1ccc(C(C)C)c(OCc2n[nH]c(=O)n2C)c1 [Example A27, 4-Methyl-3-[(5-methyl-2-propan-2-ylphenoxy)methyl]-1H-1,2,4-triazol-5-one]",0.019
14,Cc1cc(OCc2n[nH]c(=O)n2C)c(-c2ccc(Cl)cc2)cc1Cl [Example B4],0.006
15,"Cc1cc(OCc2cc[nH]n2)c(C(C)(C)C)cc1C#N [Example F2, 4-((1H-Pyrazol-3-yl)methoxy)-5-tert-butyl-2-methylbenzonitrile]",0.018
16,CC(C)c1cc2c(cc1OCc1n[nH]c(=O)n1C)C(C)(C)CC2 [Example A3],0.025
17,Cc1cc(C(C)(C)C)c(OCc2n[nH]c3cnccc23)cc1C#N [Example D49],0.002
18,Cc1cc(OCc2n[nH]c(=O)n2C)c(-c2cc(OC3CC3)ccc2F)cc1Cl [Example B92],0.001
19,Cc1cc(OCc2n[nH]c3ncccc23)c(C(C)(C)C)cc1S(C)(=O)=O [Example D9],0.215
20,"Cc1cc(OCc2n[nH]c(=O)n2C)c(-c2cc(C(=O)N(C)C)ccc2C)cc1Cl [Example B51, 3-[5-Chloro-4-methyl-2-[(4-methyl-5-oxo-1H-1,2,4-triazol-3-yl)methoxy]phenyl]-N,N,4-trimethylbenzamide]",0.017
21,Cc1cc(OCc2n[nH]c(=O)n2C)c(-c2cc(C(=O)NC3CC3)ccc2F)cc1Cl [Example B15],0.011
22,"Cc1cc(OCc2n[nH]c3nc(F)ccc23)c(C(C)(C)C)cc1Cl [Example D6, 3-[(2-tert-Butyl-4-chloro-5-methylphenoxy)methyl]-6-fluoro-1H-pyrazolo[3,4-b]pyridine]",0.019
23,Cc1cc(OCc2n[nH]c(=O)n2C)c(C2CCOCC2)cc1Cl [Example A21],0.062
24,Cc1cc(OCc2n[nH]c3nc(N(C)CC(O)CO)ncc23)c(C(C)(C)C)cc1Cl (centres unmarked) [Example D27],0.008
25,Cc1cc(OCc2n[nH]c(=O)n2C)c(-c2cccc(C(=O)NCCO)c2)cc1Cl [Example B36],0.082
